Experimental data published in PMC10629583, “Specific inhibition of an anticancer target, polo-like kinase 1, by allosterically dismantling its mechanism of substrate recognition” (Proceedings of the National Academy of Sciences of the …, 2023).

Columns and labels:
human His-Plk1 = target: T1, human His-Plk1 (Homo sapiens, UniProt P53350); assay: In vitro Plk1 kinase assay (casein, 32P); type: biochemical; conditions: casein substrate
T1 construct: His (N); purchased Sino Biological; host or cells: Sf9
T1 sequence (P53350 whole entry): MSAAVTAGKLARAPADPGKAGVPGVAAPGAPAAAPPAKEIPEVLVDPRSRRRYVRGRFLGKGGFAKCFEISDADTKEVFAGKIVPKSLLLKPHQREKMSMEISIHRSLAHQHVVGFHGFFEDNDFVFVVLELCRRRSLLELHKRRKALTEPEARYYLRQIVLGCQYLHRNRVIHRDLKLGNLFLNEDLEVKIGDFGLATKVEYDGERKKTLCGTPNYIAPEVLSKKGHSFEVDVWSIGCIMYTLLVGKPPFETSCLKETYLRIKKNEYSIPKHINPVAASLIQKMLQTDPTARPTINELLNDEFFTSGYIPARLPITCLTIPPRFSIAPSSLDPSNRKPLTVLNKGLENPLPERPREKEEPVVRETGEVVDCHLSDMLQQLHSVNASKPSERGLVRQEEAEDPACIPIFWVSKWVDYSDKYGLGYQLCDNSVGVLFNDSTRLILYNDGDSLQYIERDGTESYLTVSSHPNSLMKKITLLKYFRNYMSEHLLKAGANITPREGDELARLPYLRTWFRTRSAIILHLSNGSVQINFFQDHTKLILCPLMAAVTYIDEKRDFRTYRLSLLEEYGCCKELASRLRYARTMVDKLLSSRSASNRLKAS
Description: Kinase reactions were carried out in two steps. First, Sf9-purified 0.2 µg of human His-Plk1 (Sino Biological) was preincubated in a kinase cocktail [50 mM Tris-Cl (pH 7.5), 10 mM MgCl2, 2 mM dithiothreitol, 2 mM EGTA, and 27 mM p-nitrophenylphosphate] in the presence of either Allopole-A or p-13mer PBIP peptide for 20 min at 25 °C. The samples were then added with 1 µg of dephosphorylated casein (Sigma) and 1.25 µM of ATP (1.25 µCi of [γ^32P] ATP, 1Ci = 37 GBq) and reacted for additional 30 min at 30 °C. The reactions were terminated by the addition of 5× Laemmli SDS sample buffer, separated by 10% SDS-PAGE, and analyzed by autoradiography. To quantify the γ^32P signals, appropriate bands were excised from dried SDS-PAGE gels and analyzed by a liquid scintillation counter (Beckman model LS 6500).

full-length Plk1 = target: T2, full-length Plk1 (Homo sapiens, UniProt P53350); assay: ELISA-based PBD1-binding inhibition assay; conditions: total lysates from HEK293A cells expressing full-length Plk1; biotinylated PBIP1 p-T78 peptide; read-out: Anti-Plk1 (full length) ELISA (IC50) Mean ± SEM
T2 construct: expressed in transfected cells; host or cells: HEK293A cells infected with adenovirus; total lysate
T2 sequence (P53350 whole entry): as above

PBD1 F559K mutant = target: T3, PBD1 F559K mutant (Homo sapiens, UniProt P53350, F559K); assay: FP-based binding/inhibition assay, PBD1 F559K; conditions: PBD1 F559K, 2 µM protein
T3 construct: constructs expressing PBD1 (residues 345–603) WT (pKM7650); His; TEV site (N); made in house; host or cells: bacteria (E. coli)
T3 sequence (P53350 345-603 F559K): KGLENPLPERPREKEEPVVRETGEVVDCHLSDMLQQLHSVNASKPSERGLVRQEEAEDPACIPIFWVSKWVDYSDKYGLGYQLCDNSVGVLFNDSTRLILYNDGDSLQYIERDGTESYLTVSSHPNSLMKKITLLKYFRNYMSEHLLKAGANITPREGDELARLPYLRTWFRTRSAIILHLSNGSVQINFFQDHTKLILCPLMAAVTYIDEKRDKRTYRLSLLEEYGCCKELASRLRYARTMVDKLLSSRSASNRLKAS
Description: FP assays were carried out essentially as described previously ([35], [36]). FITC-conjugated ligands (15 nM) were mixed with PBDs at their EC85 concentrations. All the samples were analyzed approximately 30 min after reaction in a 384-well format using the SpectraMax Paradigm multimode microplate detection platform (Molecular Devices). Data were analyzed after carrying out at least three independent experiments using GraphPad Prism software version 8.
Fig. S4. Generation of F559 mutants for in vitro and cell-based assays in Fig. 4. (A) SDS-PAGE showing the proteins used for the FP assays in Fig. 4 A and B. CBB, a Coomassie Brilliant Blue– stained gel. (B) Summary of Kd and EC85 values for PBD1 WT and mutants. The Kd values for PBD1 WT and mutants were determined after extrapolating them from the binding curves as the concentration at which 50% of the FITC-Ahx-DPPLHSpTAI-NH2 are PBD1-bound. The EC85 values indicate the effective concentration of 85% of the maximal concentration calculated for each protein. The FP values were obtained 30 minutes after incubation. For the F559K and F559R mutants, we were not able to determine the EC85 values and therefore used 2 µM of these proteins for the assays in Fig. 4B. N.D., not determined. […]

[1] = test system: Flag-Plk1 F559D interactions with p-PBIP1, p-Bub1, p-BubR1, p-Cdc25C; assay: Coimmunoprecipitation, HeLa cells expressing Flag-Plk1 F559D; type: cell-based; conditions: 20 μM for 2 h, nocodazole + okadaic acid
Description: For coimmunoprecipitation analyses shown in Figs. 1C and 4F, HeLa cells stably expressing PCMV-Flag-Plk1 WT (pKM3863) (Fig. 1C) and its respective F559D mutant (pKM7979) (Fig. 4F) were generated using a lentiviral expression system. Prior to harvest, the cells were treated with 600 nM of nocodazole and 300 nM of okadaic acid (OA) for 16 h and 1.5 h, respectively, to enrich the level of phosphorylated proteins and additionally treated with either control DMSO or 20 μM of Allopole for 2 h. Immunoprecipitation was carried out essentially as described previously ([49]) in TBSN buffer [20 mM Tris–Cl (pH 8.0), 150 mM NaCl, 0.5% NP-40, 5 mM EGTA, 2 mM MgCl2, 1.5 mM EDTA, 2 mM DTT, 20 mM p-nitrophenyl phosphate (PNPP), and protease inhibitor cocktail (Roche)] using anti-Flag antibody (Sigma-Aldrich). Immunoprecipitates were separated by sodium dodecyl sulfate–polyacrylamide gel electrophoresis (SDS-PAGE) and then immunoblotted according to standard procedures using an enhanced chemiluminescence detection system (Thermo Fisher Scientific). The antibodies that were used to detect specific indicated proteins in Fig. 1C are listed in SI Appendix, Table S6.

[2] = test system: mGFP-Plk1 F559D at centrosomes, U2OS cells; assay: Confocal quantification of Pendo-mGFP-Plk1 F559D in U2OS cells (siPlk1); type: cell-based; conditions: U2OS siPlk1, 8 μM, 2 or 16 h
Description: To corroborate the importance of the F559 residue for Allopole-A binding, U2OS cells expressing endogenous promoter (i.e., Pendo)-controlled mGFP-Plk1 WT or F559D mutant were depleted of endogenous Plk1 by RNAi for 48 h (SI Appendix, Fig. S4C), treated with control DMSO or 8 μM of Allopole for 2 or 16 h, and fixed (SI Appendix, Fig. S4D). Afterward, the level of mGFP fluorescence was quantified using confocal microscopy (Fig. 4 C and D). As expected from the results shown in Fig. 1 C and D, Allopole delocalized mGFP-Plk1 WT from centrosomes within 2 h after treatment, and this effect was sustained for up to 16 h. […] This could be attributable to the fact that unlike PBIP1, which binds to PBD1 through the self-priming and binding mechanism ([49]), Bub1, BubR1, and likely Cdc25C require Cdc2-dependent priming phosphorylation to interact with PBD1 ([42]–[44]). […]
Confocal images of unsaturated fluorescence signals were acquired under the same laser intensity at the 12-bit resolution. Fluorescence intensities for identifiable centrosome and kinetochore signals were quantified after the maximum-intensity projection of z-stacks using the Zeiss ZEN v2.1 software (Carl Zeiss Microscopy, LLC). Data were quantified from three independent experiments.

| Structure (SMILES) | Effect on His-Plk1 kinase activity in vitro (in words) (human His-Plk1) | IC50 (full-length Plk1) [nM] | Inhibition of FITC-phosphopeptide binding (in words) (PBD1 F559K mutant) | Phosphoproteins coprecipitating with Flag-Plk1 F559D (in words) [1] | Level of centrosome-localized mGFP-Plk1 F559D (in words) [2] |
| --- | --- | --- | --- | --- | --- |
| O=c1c2sc(Cl)cc2n2c(=S)[nH]nc2n1CC1CC1 [Allopole-A] | significantly inhibited Plk1 activity | 1400 | failed to inhibit |  |  |
| Cn1cnc([N+](=O)[O-])c1Sc1nnc2n(CC3CC3)c(=O)c3sc(Cl)cc3n12 [Allopole] |  |  |  | coimmunoprecipitated p-PBIP1, p-Bub1, p-BubR1, and p-Cdc25C effectively | failed to alter the level |
